Square brackets hold non-standard residues; d marks the D form. Peptide text beside a SMILES is read from it. dHica = CC(C)C[C@@H](O)C(=O)O; dNMeL = CN[C@H](CC(C)C)C(=O)O; NMeV = CN[C@H](C(=O)O)C(C)C; Hiv = CC(C)[C@H](O)C(=O)O; NMeA = CN[C@@H](C)C(=O)O; βAla = NCCC(=O)O
Target: IN-GCN2 interaction (6xHis-IN / GST-GCN2) (UniProt P04585+Q9P2K8)
Experiment: biochemical
Assay type: binding, HIV-1 IN; human GCN2
Settings: screen, single dose 100 µM, single replicate, residual AlphaLISA signal normalized to DMSO control

IN-GCN2 interaction (6xHis-IN / GST-GCN2), sequence (Q9P2K8 192-1024, other chains not shown): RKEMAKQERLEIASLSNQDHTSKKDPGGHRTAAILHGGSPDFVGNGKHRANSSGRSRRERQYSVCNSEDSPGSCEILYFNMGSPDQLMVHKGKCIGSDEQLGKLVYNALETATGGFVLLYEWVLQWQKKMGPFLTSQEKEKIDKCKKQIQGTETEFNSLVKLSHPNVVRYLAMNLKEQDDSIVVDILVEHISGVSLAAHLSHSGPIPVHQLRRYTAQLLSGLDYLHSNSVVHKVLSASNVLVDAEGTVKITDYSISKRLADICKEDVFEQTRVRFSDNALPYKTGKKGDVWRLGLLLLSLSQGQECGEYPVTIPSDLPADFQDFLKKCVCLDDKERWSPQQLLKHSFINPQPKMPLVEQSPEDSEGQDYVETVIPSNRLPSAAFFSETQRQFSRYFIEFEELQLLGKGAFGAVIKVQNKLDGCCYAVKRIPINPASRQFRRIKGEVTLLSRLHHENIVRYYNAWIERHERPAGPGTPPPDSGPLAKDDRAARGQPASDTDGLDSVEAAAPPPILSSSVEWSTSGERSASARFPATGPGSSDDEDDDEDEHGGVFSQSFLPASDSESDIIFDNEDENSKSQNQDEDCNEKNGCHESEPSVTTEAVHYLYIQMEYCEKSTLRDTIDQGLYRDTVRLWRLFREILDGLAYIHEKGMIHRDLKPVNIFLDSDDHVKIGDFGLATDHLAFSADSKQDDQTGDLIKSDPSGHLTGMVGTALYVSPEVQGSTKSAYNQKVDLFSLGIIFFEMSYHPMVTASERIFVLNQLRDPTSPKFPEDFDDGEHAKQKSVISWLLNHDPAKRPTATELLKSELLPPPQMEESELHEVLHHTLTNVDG

CC(C)C[C@@H]1NC(=O)[C@H](C(C)C)NC(=O)[C@H](C(C)C)OC(=O)[C@@H](CC(C)C)N(C)C(=O)[C@@H](C(C)C)NC(=O)[C@H](C(C)C)OC1=O [NSC122224] (cyclo([Hiv]VL[Hiv][dV][dNMeL]))
IN-GCN2 interaction (%): 110.56%

CC1=C(C)C(=O)O[C@@H]([C@](C)(O)[C@]2(O)CC[C@@]3(O)[C@@H]4C[C@H]5O[C@]56CC=CC(=O)[C@]6(C)[C@H]4CC[C@]23C)C1 [NSC179834]
IN-GCN2 interaction (%): 38.70%

COc1cccc2c1cc([N+](=O)[O-])c1c(C(=O)O)cc3c(c12)OCO3 [NSC11926]
IN-GCN2 interaction (%): 137.25%

COc1c(O)ccc2c1-c1c3c(cc4c1[C@H](C2)N(C)CC4)OCO3 [NSC785182]
IN-GCN2 interaction (%) (listed as 785182): 74.81%

COc1cc2c3c(c1OC)-c1ccccc1C[C@H]3N(C)CC2 [NSC785145]
IN-GCN2 interaction (%): 66.76%

COc1ccc(C(=O)O[C@H]2CC[C@@]3(C)[C@@H]4CC[C@H]5[C@]6(O)C[C@H](O)[C@@]7(O)[C@@H](CN8C[C@@H](C)CC[C@H]8[C@@]7(C)O)[C@]6(O)C[C@@]53O[C@]24O)cc1OC [NSC7524]
IN-GCN2 interaction (%): 106.09%

C[C@H](N)C(=O)N[C@@H]1[C@H]2C(=C(O)C[C@@H](O)[C@@H]2O)C(=O)O[C@]1(C)C(Cl)Cl [NSC325014]
IN-GCN2 interaction (%): 94.06%

COC1=C(N)C(=O)c2nc(-c3nc(C(=O)O)c(C)c(-c4ccc(OC)c(OC)c4O)c3N)ccc2C1=O [NSC45383]
IN-GCN2 interaction (%): 84.72%

CC[C@H](C)[C@@H]1NC(=O)[C@@H]2CCCN2C(=O)[C@@H](CC(C)C)OC(=O)CCNC(=O)[C@H](C)N(C)C(=O)[C@H](C(C)C)N(C)C1=O [NSC236580] (cyclo([dHica]PI[NMeV][NMeA][βAla]))
IN-GCN2 interaction (%): 98.06%

COc1cc2c(cc1OC)C(OC)N(C)c1c-2ccc2cc3c(cc12)OCO3 (stereo not drawn) [NSC146396]
IN-GCN2 interaction (%): 90.77%

C/C=C\C(C)=C\[C@H](C)C(=O)C[C@H](O)CC1CC(=O)NC(=O)C1 [NSC248958]
IN-GCN2 interaction (%): 116.00%

N#Cc1cn([C@@H]2O[C@H](CO)[C@@H](O)[C@H]2O)c2ncnc(N)c12 [NSC99843]
IN-GCN2 interaction (%) (listed as 99843): 116.98%

CC[C@H]1OC(=O)[C@H](C)[C@@H](OC2CC(C)(OC)C(O)C(C)O2)[C@H](C)[C@@H](OC2OC(C)CC(N(C)C)C2OC(=O)CCC2CCCC2)[C@](C)(O)C[C@@H](C)C(=O)[C@H](C)[C@@H](O)[C@]1(C)O (stereo partly drawn) [NSC63946]
IN-GCN2 interaction (%): 43.14%

CC(C)c1ccc(O)c(=O)cc1 [NSC18805]
IN-GCN2 interaction (%) (listed as 18805): 75.92%

C[C@@H](N)C(=O)NC(CO)C(O)C(N)C=O.Cl (stereo partly drawn) [NSC278619]
IN-GCN2 interaction (%): 77.59%

O=C(O)C1(O)C[C@@H](O)C(O)[C@H](O)C1 (stereo partly drawn) [NSC1115]
IN-GCN2 interaction (%) (listed as 1115): 83.40%

Oc1ccc2c(c1)OC[C@]1(O)Cc3cc(O)c(O)cc3[C@H]21 [NSC8661]
IN-GCN2 interaction (%): 86.68%

COc1cc2c(cc1O)[C@@H](Cc1ccc(Oc3cc(C[C@H]4c5cc(O)c(OC)cc5CCN4C)ccc3O)cc1)N(C)CC2 [NSC785184]
IN-GCN2 interaction (%): 46.86%

C=C1C(=O)O[C@@H]2[C@H]1CC[C@H](C)[C@]1(O)C=CC(=O)[C@@]21C [NSC85239]
IN-GCN2 interaction (%): 120.23%

COc1cc2c3cc1Oc1c(O)c(OC)cc4c1[C@H](Cc1ccc(cc1)Oc1cc(ccc1O)C[C@H]3N(C)CC2)N(C)CC4 [NSC93674]
IN-GCN2 interaction (%): 63.45%

CCCCCCCCCCCCCCCCCCOCC(O)CO (stereo not drawn) [NSC284200]
IN-GCN2 interaction (%): 138.26%

COC1=CC23CCCN2CCc2cc4c(cc2C3C1O)OCO4 (stereo not drawn) [NSC128487]
IN-GCN2 interaction (%): 118.57%

COc1ccc2[nH]c3c(C)c4ccncc4c(C)c3c2c1 [NSC69187]
IN-GCN2 interaction (%): 42.76%

C[C@@H]1C(=O)C[C@H]2C(C)(C)CCC[C@]2(C)[C@@]1(O)CCc1ccoc1 [NSC332876]
IN-GCN2 interaction (%): 44.59%
